Read-outs that look alike come from different tables or passages of the source.
Tests used:
K-Ras G12S = molecular target: T1, K-Ras G12S (Homo sapiens, UniProt P01116, G12S); test: HTRF assay of the K-Ras / SOS1 interaction; assay type: biochemical; conditions: IC50 (against K-Ras G12D) to IC50 (against K-Ras G12S)
T1 construct: made in house; host or cells: E. coli (e.g., BL21 (DE3))
Procedure, shortened: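 Compounds (duplicates, 10 µM to 0.01 µM) were incubated ≥~10 min with Eu-labelled GST-K-Ras G12S and XL665-labelled His-hSOS1 in HEPES pH 7.4 buffer containing NaCl, DTT, BSA and Igepal. Disruption measured as HTRF emission ratio 665/620 nm, fitted to IC50.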

A549 cells = test: Cell proliferation assay (CellTiter-Glo), K-Ras G12S cells; assay type: cell-based; conditions: for IC50: Homo sapiens; for ratio of IC50 against a G12D cell line to IC50 against a G12S cell line: K-Ras G12D cell line such as GP2D relative to K-Ras G12S cell line such as A549, greater than 1, 2, 3, 4, 5, 10, 15 or even greater, 8640 min
Procedure: A549 (ATCC CRL-185) and LS123 (ATCC CRL-255) cell lines comprise a G12S mutation and can be used to assess Ras cellular signaling in vitro, e.g., in response to the compounds herein. A549 culture medium is prepared with RPMI-1640 and 10% heat-inactivated FBS. LS123 culture medium is prepared with RPMI-1640 and 10% heat-inactivated FBS. A CellTiter-Glo (CTG) luminescent based assay (Promega) is used to assess growth of the cells, as a measurement of the ability of the compounds herein to inhibit Ras signaling in the cells. The cells (e.g., 800 per well) are seeded in their respective culture medium in standard tissue culture-treated 384-well format plates (Falcon #08-772-116) or ultra-low attachment surface 384-well format plates (S-Bio # MS-9384WZ). The day after plating, cells are treated with a dilution series (e.g., a 10 point 3-fold dilution series) of the compounds herein (e.g., approximately 40 µl final volume per well). Cell viability can be monitored (e.g., approximately 6 days later) according to the manufacturer's recommended instructions, where the CellTiter-Glo reagent is added (e.g., approximately 10 µl), vigorously mixed, covered, and placed on a plate shaker (e.g., approximately for 20 min) to ensure sufficient cell lysis prior to assessment of luminescent signal. The IC50 values are determined using the four parameter fit. The resulting IC50 value is a measurement of the ability of the compounds herein to reduce cell growth of Ras-driven cells (e.g., tumor cell lines) in vitro and/or in vivo.

GP2D cells = test: Cell proliferation assay (CellTiter-Glo), K-Ras G12D cells; assay type: cell-based; conditions: read-out: Inhibition of GP2D Cells (IC50)
Procedure, shortened: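 CellTiter-Glo luminescence, taken roughly 5 days after dosing, measured growth of G12D-mutant GP2D cells in DMEM/2 mM glutamine/10% FBS. Compound dilution series (e.g., 9 points, 3-fold) added the day after plating. Four-parameter fitting gave IC50.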

[1] = A549, A549 cells (K-Ras G12S), bin ≤ 500 nM, read-out: Inhibition of A549 Cells (IC50)
[2] = A549, A549 cells (K-Ras G12S), bin 500 nM to 5 µM, read-out: Inhibition of A549 Cells (IC50)
[3] = A549, read-out: Inhibition of A549 Cells (IC50)

T1 sequence (P01116 1-188 isoform P01116-2 G12S): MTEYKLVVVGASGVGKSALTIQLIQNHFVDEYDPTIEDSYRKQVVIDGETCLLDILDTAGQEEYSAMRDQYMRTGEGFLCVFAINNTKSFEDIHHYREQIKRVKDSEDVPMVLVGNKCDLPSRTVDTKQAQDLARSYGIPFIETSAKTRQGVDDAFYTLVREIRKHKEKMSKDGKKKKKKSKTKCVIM

Row | IC50 (A549 cells; [1]) [nM] | IC50 (A549 cells; [2]) [nM] | ratio of IC50 against a G12D cell line to IC50 against a G12S cell line (A549 cells) | Compound | Ratio of IC50 KRAS G12D vs. IC50 KRAS G12S (K-Ras G12S) | IC50 (GP2D cells; GP2D cells (K-Ras G12D)) [nM] | IC50 (A549 cells; [3]) [nM] | IC50 (GP2D cells; GP2d) [nM]
1 | ≤ 500 |  |  | N#Cc1c(N)sc2c(F)ccc(-c3c(Cl)cc4c(N5CCC6C5CCN6C(=O)n5cncn5)nc(OC[C@@]56CCCN5C[C@H](F)C6)nc4c3F)c12 (stereo partly drawn) [Compound A108, 4-(4-(4-(1H-1,2,4-triazole-1-carbonyl)hexahydropyrrolo[3,2-b]pyrrol-1(2H)-yl)-6-chloro-8-fluoro-2-(((2R,7aS)-2-fluorotetrahydro-1H-pyrrolizin-7a(5H)-yl)methoxy)quinazolin-7-yl)-2-amino-7-fluorobenzo[b]thiophene-3-carbonitrile] | A (A: indicates that the ratio of IC50 against KrasG12D vs. IC50 against KrasG12S is 1-fold or greater) | ≤ 1000 |  | 
2 |  |  |  | Nc1nc2c(-c3c(Cl)cc4c(N5CC6CCC(C5)N6C(=O)n5ccnn5)nc(OC[C@@]56CCCN5C[C@H](F)C6)nc4c3F)ccc(F)c2s1 [Compound A153, (3-(7-(2-amino-7-fluorobenzo[d]thiazol-4-yl)-6-chloro-8-fluoro-2-(((2R,7aS)-2-fluorotetrahydro-1H-pyrrolizin-7a(5H)-yl)methoxy)quinazolin-4-yl)-3,8-diazabicyclo[3.2.1]octan-8-yl)(1H-1,2,3-triazol-1-yl)methanone] | A (A: indicates that the ratio of IC50 against KrasG12D vs. IC50 against KrasG12S is 1-fold or greater) |  | 500 to 5000 | ≤ 1000
3 |  | 500 to 5000 |  | C#Cc1c(F)ccc2cc(O)cc(-c3ncc4c(N5CCOCC6(CN(C(=O)n7cncn7)C6)C5)nc(OC[C@@]56CCCN5C[C@H](F)C6)nc4c3F)c12 [Compound A158, (9-(7-(8-ethynyl-7-fluoro-3-hydroxynaphthalen-1-yl)-8-fluoro-2-(((2R,7aS)-2-fluorotetrahydro-1H-pyrrolizin-7a(5H)-yl)methoxy)pyrido[4,3-d]pyrimidin-4-yl)-6-oxa-2,9-diazaspiro[3.6]decan-2-yl)(1H-1,2,4-triazol-1-yl)methanone] | A (A: indicates that the ratio of IC50 against KrasG12D vs. IC50 against KrasG12S is 1-fold or greater) | 1000 to 10000 |  | 
4 |  | 500 to 5000 |  | Cc1ncn(C(=O)N2CCCC(Oc3nc(OC[C@@]45CCCN4C[C@H](F)C5)nc4c(F)c(-c5ccc(F)c6sc(N)c(C#N)c56)c(Cl)cc34)CC2)n1 (stereo partly drawn) [Compound A174, 2-amino-4-(6-chloro-8-fluoro-2-(((2R,7aS)-2-fluorotetrahydro-1H-pyrrolizin-7 a(5H)-yl)methoxy)-4-((1-(3-methyl-1H-1 ,2,4-triazole-1-carbonyl)azepan-4-yl)oxy)quinazolin-7-yl)-7-fluorobenzo[b]thiophene-3-carbonitrile] | A (A: indicates that the ratio of IC50 against KrasG12D vs. IC50 against KrasG12S is 1-fold or greater) | 1000 to 10000 |  | 
5 | ≤ 500 |  |  | N#Cc1c(N)sc2c(F)ccc(-c3c(Cl)cc4c(N5CC6CCN(C(=O)n7cncn7)C6C5)nc(OC[C@@]56CCCN5C[C@H](F)C6)nc4c3F)c12 (stereo partly drawn) [Compound A180, 4-(4-(1-(1H-1,2,4-triazole-1-carbonyl)hexahydropyrrolo[3,4-b]pyrrol-5(1H)-yl)-6-chloro-8-fluoro-2-(((2R,7aS)-2-fluorotetrahydro-1H-pyrrolizin-7a(5H)-yl)methoxy)quinazolm-7-yl)-2-amino-7-fluorobenzo[b]thiophene-3-carbonitrile] | A (A: indicates that the ratio of IC50 against KrasG12D vs. IC50 against KrasG12S is 1-fold or greater) | 1000 to 10000 |  | 
6 | ≤ 500 |  | greater than 1 | N#Cc1c(N)sc2c(F)ccc(-c3c(Cl)cc4c(N5CCCC6C5CCN6C(=O)n5cncn5)nc(OC[C@@]56CCCN5C[C@H](F)C6)nc4c3F)c12 (stereo partly drawn) [Compound A184, 4-(4-(1-(1H-1,2,4-triazole-1-carbonyl)octahydro-4H-pyrrolo[3,2-b]pyridin-4-yl)-6-chloro-8-fluoro-2-(((2R,7aS)-2-fluorotetrahydro-1H-pyrrolizin-7a(5H)-yl)methoxy)quinazolin-7-yl)-2-amino-7-fluorobenzo[b]thiophene-3-carbonitrile] | A (A: indicates that the ratio of IC50 against KrasG12D vs. IC50 against KrasG12S is 1-fold or greater) | ≤ 1000 |  | 
7 |  |  |  | Cc1ncn(C(=O)N2C3CCC2CN(c2nc(OC[C@@]45CCCN4C[C@H](F)C5)nc4c(F)c(-c5ccc(F)c6sc(N)c(C#N)c56)c(Cl)cc24)C3)n1 [Compound A186, 2-amino-4-(6-chloro-8-fluoro-2-(((2R,7aS)-2-fluorotetrahydro-1H-pyrrolizin-7a(5H)-yl)methoxy)-4-(8-(3-methyl-1H-1,2,4-triazole-1-carbonyl)-3,8-diazabicyclo[3.2.1]octan-3-yl)quinazolin-7-yl)-7-fluorobenzo[b]thiophene-3-carbonitrile] | A (A: indicates that the ratio of IC50 against KrasG12D vs. IC50 against KrasG12S is 1-fold or greater) |  | 500 to 5000 | ≤ 1000
8 | ≤ 500 |  | greater than 1 | Cc1nc(C(C)C)nn1C(=O)N1CC2(CCCCN(c3nc(OC[C@@]45CCCN4C[C@H](F)C5)nc4c(F)c(-c5ccc(F)c6sc(N)c(C#N)c56)c(Cl)cc34)C2)C1 [Compound A305, 2-amino-4-(6-chloro-8-fluoro-2-(((2R,7aS)-2-fluorotetrahydro-1H-pyrrolizin-7 a(5H)-yl)methoxy)-4-(2-(3-isopropyl-5-methyl-1H-1,2,4-triazole-1-carbonyl)-2,6-diazaspiro[3.6]decan-6-yl)quinazolin-7-yl)-7-fluorobenzo[b]thiophene-3-carbonitrile] |  | 1000 to 10000 |  | 
9 |  | 500 to 5000 |  | N#Cc1c(N)sc2c(F)ccc(-c3c(Cl)cc4c(N5CC6CN(C(=O)n7cncn7)C6C5)nc(OC[C@@]56CCCN5C[C@H](F)C6)nc4c3F)c12 (stereo partly drawn) [Compound A306, 4-(4-(6-(1H-1,2,4-triazole-1-carbonyl)-3,6-diazabicyclo[3.2.0]heptan-3-yl)-6-chloro-8-fluoro-2-(((2R,7aS)-2-fluorotetrahydro-1H-pyrrolizin-7a(5H)-yl)methoxy)quinazolin-7-yl)-2-amino-7-fluorobenzo[b]thiophene-3-carbonitrile] |  | ≤ 1000 |  | 

Row | Compound | IC50 (A549 cells; [1]) [nM] | IC50 (A549 cells; [2]) [nM] | ratio of IC50 against a G12D cell line to IC50 against a G12S cell line (A549 cells) | Ratio of IC50 KRAS G12D vs. IC50 KRAS G12S (K-Ras G12S) | IC50 (GP2D cells; GP2D cells (K-Ras G12D)) [nM] | IC50 (A549 cells; [3]) [nM] | IC50 (GP2D cells; GP2d) [nM]
10 | Nc1nc2c(-c3c(Cl)cc4c(N5CC6CCC(C5)N6C(=O)n5cncn5)nc(OC[C@@]56CCCN5C[C@H](F)C6)nc4c3F)ccc(F)c2s1 [Compound A111, (3-(7-(2-amino-7-fluorobenzo[d]thiazol-4-yl)-6-chloro-8-fluoro-2-(((2R,7aS)-2-fluorotetrahydro-1H-pyrrolizin-7a(5H)-yl)methoxy)quinazolin-4-yl)-3,8-diazabicyclo[3.2.1]octan-8-yl)(1H-1,2,4-triazol-1-yl)methanone] |  | 500 to 5000 |  | A (A: indicates that the ratio of IC50 against KrasG12D vs. IC50 against KrasG12S is 1-fold or greater) | ≤ 1000 |  | 
11 | N#Cc1c(N)sc2c(F)ccc(-c3c(Cl)cc4c(N5CC6CCC(C5)N6C(=O)n5cc(C(F)(F)F)cn5)nc(OC[C@@]56CCCN5C[C@H](F)C6)nc4c3F)c12 [Compound A122, 2-amino-4-(6-chloro-8-fluoro-2-(((2R,7aS)-2-fluorotetrahydro-1H-pyrrolizin-7 a(5H)-yl)methoxy)-4-(8-(4-(trifluoromethyl)-1H-pyrazole-1-carbonyl)-3,8-diazabicyclo[3.2.1]octan-3-yl)quinazolin-7-yl)-7-fluorobenzo[b]thiophene-3-carbonitrile] |  | 500 to 5000 |  | A (A: indicates that the ratio of IC50 against KrasG12D vs. IC50 against KrasG12S is 1-fold or greater) | ≤ 1000 |  | 

Reference: EP4389751A1, “HETEROCYCLIC COMPOUNDS AND USES THEREOF” (Kumquat Biosciences Inc., priority 2021, dated 2024)
